From ChEMBL document CHEMBL1949605, “Discovery of aminoheterocycles as potent and brain penetrant prolylcarboxypeptidase inhibitors” (Bioorg Med Chem Lett, 2012)

Legend:
[1] = target: T1, Lysosomal Pro-X carboxypeptidase (Mus musculus, UniProt Q7TMR0); assay: Inhibition of mouse recombinant PrCP assessed as angiotensin 3 cleavage after 8 mins by LC/MS analysis
T1 sequence (Q7TMR0 whole entry): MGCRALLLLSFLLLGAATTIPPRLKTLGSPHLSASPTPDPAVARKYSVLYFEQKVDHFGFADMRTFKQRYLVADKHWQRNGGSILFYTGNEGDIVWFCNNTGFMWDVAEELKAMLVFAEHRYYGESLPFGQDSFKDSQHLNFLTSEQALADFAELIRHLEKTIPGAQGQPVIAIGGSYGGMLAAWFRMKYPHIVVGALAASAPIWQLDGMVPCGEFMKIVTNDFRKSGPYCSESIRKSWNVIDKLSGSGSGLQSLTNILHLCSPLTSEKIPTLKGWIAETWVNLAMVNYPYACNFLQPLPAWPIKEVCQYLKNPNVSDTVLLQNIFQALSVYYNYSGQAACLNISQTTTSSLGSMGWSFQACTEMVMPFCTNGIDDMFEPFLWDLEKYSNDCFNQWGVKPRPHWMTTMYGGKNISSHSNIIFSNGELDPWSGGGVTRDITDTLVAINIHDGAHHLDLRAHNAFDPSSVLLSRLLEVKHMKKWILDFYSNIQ

[2] = target: T1, Lysosomal Pro-X carboxypeptidase; assay: Inhibition of mouse recombinant PrCP using Mca-Ala-Pro-Lys(Dnp)-OH as substrate after 30 mins by fluorescence analysis
[3] = target: T2, Lysosomal Pro-X carboxypeptidase (Homo sapiens, UniProt P42785); assay: Inhibition of human recombinant PrCP using Mca-Ala-Pro-Lys(Dnp)-OH as substrate after 30 mins by fluorescence analysis
T2 sequence (P42785 whole entry): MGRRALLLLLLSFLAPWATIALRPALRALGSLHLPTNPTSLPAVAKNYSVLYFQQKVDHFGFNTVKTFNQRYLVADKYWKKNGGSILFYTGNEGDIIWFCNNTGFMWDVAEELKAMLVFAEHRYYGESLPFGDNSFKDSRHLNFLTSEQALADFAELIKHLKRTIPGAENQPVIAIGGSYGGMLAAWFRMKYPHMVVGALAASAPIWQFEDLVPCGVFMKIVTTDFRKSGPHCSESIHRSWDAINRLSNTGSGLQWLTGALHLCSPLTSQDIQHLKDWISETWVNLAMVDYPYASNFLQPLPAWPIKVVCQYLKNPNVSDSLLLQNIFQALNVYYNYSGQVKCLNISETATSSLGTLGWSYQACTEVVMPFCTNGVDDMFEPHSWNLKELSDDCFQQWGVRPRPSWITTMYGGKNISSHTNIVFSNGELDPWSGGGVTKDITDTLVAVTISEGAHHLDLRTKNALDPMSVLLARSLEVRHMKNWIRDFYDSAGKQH

[4] = Ratio of drug uptake in brain to plasma of CF-1 mouse at 1 mg/kg, iv measured 4 hrs post-dosing; type: ADME, organism-based; set-up: dose 1 mg/kg, route intravenous; conditions: read-out: BPR
[5] = Drug uptake in CF-1 mouse brain at 1 mg/kg, iv measured after 4 hrs post dosing; type: ADME, organism-based; set-up: dose 1 mg/kg, route intravenous; conditions: read-out: Drug uptake
[6] = Plasma concentration in CF-1 mouse at 1 mg/kg, iv measured after 4 hrs post dosing; type: ADME, organism-based; set-up: dose 1 mg/kg, route intravenous
[7] = target: T3, Lysosomal Pro-X carboxypeptidase (Homo sapiens) (UniProt P42785); assay: Inhibition of human recombinant PrCP using Mca-Ala-Pro-Lys(Dnp)-OH as substrate at 5 uM after 30 mins by fluorescence analysis
T3 sequence (whole entry): T2 sequence (P42785 whole entry)

Compound | IC50 [1] | IC50 [2] | further results
Clc1cc2nc([C@@H]3CCCN3c3cc(N4CCC(c5ccccn5)C4)ncn3)[nH]c2cc1Cl (mixture of isomers) | > 20000 nM |  | 
OC1(c2ccccc2)CCN(c2cc(N3CCC[C@H]3c3nc4cc(Cl)c(Cl)cc4[nH]3)ncn2)C1 (mixture of isomers) | > 20000 nM |  | 
C[C@@H](c1ccc(Cl)cc1)N(C)c1cc(N2CCCC(C(C)(C)O)C2)ncn1 (stereo in doubt; 36a) | 2210 nM | 146 nM | 
CC(C)(O)C1CCCN(c2cc(N3CCC[C@H]3c3nc4cc(Cl)c(Cl)cc4[nH]3)ncn2)C1 (mixture of isomers) | > 20000 nM |  | 
C[C@H](Nc1cc(N[C@H]2CC[C@H](c3ccccc3)CC2)ncn1)c1ccc(Cl)cc1 |  | 75 nM | 
COc1ccc(C2CN(c3cc(N4CCC[C@H]4c4nc5cc(Cl)c(Cl)cc5[nH]4)ncn3)CCO2)cc1 (stereo not given in full) | 9000 nM | 46 nM | 
Clc1cc2nc([C@@H]3CCCN3c3cc(NCC4CCCCC4)ncn3)[nH]c2cc1Cl |  |  | IC50 [3]: > 10000 nM
Clc1cc2nc([C@@H]3CCCN3c3cc(N4CCO[C@@H](c5ccccc5)C4)ncn3)[nH]c2cc1Cl | > 20000 nM |  | Kp at 4 h [4]: 0.79; concentration at 4 h [5]: 242 nM; concentration at 4 h [6]: 304 nM
FC(F)(F)c1ccccc1-c1ccnc(N2CCC[C@H]2c2nc3cc(Cl)c(Cl)cc3[nH]2)c1 |  |  | inhibition [7]: 46%
Clc1cc2nc([C@@H]3CCCN3c3cc(N4CCN(Cc5ccccc5)CC4)ncn3)[nH]c2cc1Cl | > 20000 nM | 413 nM | 
Clc1cc2nc([C@@H]3CCCN3c3cc(N4CCCC(N5CCc6c(cccc6-c6cccnc6)C5)C4)ncn3)[nH]c2cc1Cl (stereo in doubt; 28a) | 345 nM | 10 nM | Kp at 4 h [4]: 0.29; concentration at 4 h [5]: 108 nM; concentration at 4 h [6]: 367 nM
C[C@H](Nc1cc(N[C@H]2CC[C@H](NS(C)(=O)=O)CC2)ncn1)c1ccc(Cl)cc1 |  | 105 nM | 
C[C@@H](c1ccc(Cl)cc1)N(C)c1cc(N2CCCC(C(C)(C)O)C2)ncn1 (mixture of isomers) | 5000 nM | 797 nM | 
Clc1cc2nc([C@@H]3CCCN3c3cc(N4CCO[C@H](c5ccccc5)C4)ncn3)[nH]c2cc1Cl | > 20000 nM |  | 
COC(=O)N[C@H]1CC[C@H](Nc2cc(N[C@@H](C)c3ccc(Cl)cc3)ncn2)CC1 | 159 nM | 26 nM | 
Clc1cc2nc([C@@H]3CCCN3c3cc(N4CCCC(N5CCc6c(cccc6-c6cccnc6)C5)C4)ncn3)[nH]c2cc1Cl (stereo in doubt; 28b) | 355 nM | 18 nM | 
Clc1cc2nc([C@@H]3CCCN3c3cc(N4CCC(Cn5cccn5)CC4)ncn3)[nH]c2cc1Cl | > 20000 nM | 206 nM | 
C[C@H](Nc1cc(N2CCCC(C(C)(C)O)C2)ncn1)c1ccc(Cl)cc1 (stereo not given in full) |  |  | Kp at 4 h [4]: 1.4; concentration at 4 h [5]: 400 nM; concentration at 4 h [6]: 291 nM
C[C@@H](c1ccc(-c2ccccc2)cc1)[C@H](NC(=O)C(C)(C)N)C(=O)N1CCC[C@H]1c1nc2cc(Cl)c(Cl)cc2[nH]1 | 25 nM |  | 
